We go through 2 molecules from ChEMBL document CHEMBL1148526, “Facile purification of honokiol and its antiviral and cytotoxic properties” (J Med Chem, 2006).

Holding throughout (type): functional
For test [1], the system named is PBMC. Put plainly: Selectivity index of antiviral vs cytoxic activity in PBM cells (CC50/EC50).
Test [2] relates to PBMC. Briefly: Cytotoxicity against human PBM cells.
The subject of another test is Vero. Put plainly: Cytotoxicity against Vero cells. As to conditions: Chlorocebus sabaeus.
The subject of the next test is CCRF-CEM. Briefly: Cytotoxicity against human CEM cells.

The term CC50 denotes the concentration giving 50% cytotoxicity. The low end stands for greater toxicity to the cells, the high end for lower toxicity to the cells. With `C=CCc1ccc(O)c(-c2ccc(O)c(CC=C)c2)c1` [HONOKIOL], in the test on PBMC [1], the “Ratio CC50/EC50” value is given as 5. Moreover, the CC50 in the test on PBMC [2] came out at 16.1 µM; in the test with Vero it was 22.5 µM; with CCRF-CEM, 10.9 µM.
`C=CCc1ccc(O)c(-c2cc(CC=C)ccc2O)c1` [MAGNOLOL]: the CC50 with PBMC [2] was 38.6 µM; in the test with Vero, 50.6 µM; in the test on CCRF-CEM, 99.5 µM.
